The text below walks through data of patent US8987254B2, “Tetrahydropyrrolothiazine compounds” (Eli Lilly and Company, priority 2013, dated 2015).

The term pIC50 denotes the IC50 on a negative log10 scale, so that one unit is a factor of ten.

In series [1] the test system is primary cortical neurons from PDAPP transgenic embryonic mice. As to the kind of experiment: PDAPP Primary Neuronal Assay (Abeta ELISA). The series is classed as cell-based. Conditions: Mus musculus, Primary cortical neuron, 24 h. As to the method: (§1) For in vitro enzymatic and cellular assays, test compounds are prepared in DMSO to make up a 10 mM stock solution. The stock solution is serially diluted in DMSO to obtain a ten-point dilution curve with final compound concentrations ranging from […] to 0.05 nM in a 96-well round-bottom plate before conducting the in vitro enzymatic and whole cell assays.
A confirmatory whole cell assay is also run in primary neuronal cultures generated from PDAPP transgenic embryonic mice. Primary cortical neurons are prepared from Embryonic Day 16 PDAPP embryos and cultured in 96 well plates (15×10^4 cells/well in DMEM/F12 (1:1) plus 10% FBS). After 2 days in vitro, culture media is replaced with serum free DMEM/F12 (1:1) containing B27 supplement and 2 μM (final) of Ara-C (Sigma, C1768). At day 5 in vitro, neurons are incubated at 37° C. for 24 h in the presence/absence of inhibitors (diluted in DMSO) at the desired concentration. At the end of the incubation, conditioned media are analyzed for evidence of beta-secretase activity, for example, by analysis of Abeta peptides. Total Abeta peptides (Abeta 1-x) are measured by a sandwich ELISA, using monoclonal 266 as a capture antibody and biotinylated 3D6 as reporting antibody. Alternatively, Abeta 1-40 and Abeta 1-42 peptides are measured by a sandwich ELISA, using monoclonal 2G3 as a capture antibody for Abeta 1-40, and monoclonal 21F12 as a capture antibody for Abeta 1-42. Both Abeta 1-40 and Abeta 1-42 ELISAs use biotinylated 3D6 as the reporting antibody. The concentration of Abeta released in the conditioned media following the compound treatment corresponds to the activity of BACE1 under such conditions. The 10-point inhibition curve is plotted and fitted with the four-parameter logistic equation to obtain the EC50 and IC50 values for the Abeta-lowering effect.
A general note: In an ELISA, binding on a coated surface is turned into a signal by an enzyme label.

The test system of another series is HEK293Swe cells. As to the kind of experiment: HEK293Swe Whole Cell Assay (Abeta ELISA). The following applies: Homo sapiens. The series is classed as cell-based. As to the method: as §1
In vitro Abeta reduction assays have been described in the literature (See Dovey, et al., Journal of Neurochemistry, 76, 173-181 (2001); Seubert, et al., Nature, 361, 260 (1993); and Johnson-Wood, et al., Proc. Natl. Acad. Sci. USA, 94, 1550-1555 (1997)).
At the end of the incubation, conditioned media are analyzed for evidence of beta-secretase activity, for example, by analysis of Abeta peptides. Total Abeta peptides (Abeta 1-x) are measured by a sandwich ELISA, using monoclonal 266 as a capture antibody and biotinylated 3D6 as reporting antibody. Alternatively, Abeta 1-40 and Abeta 1-42 peptides are measured by a sandwich ELISA, using monoclonal 2G3 as a capture antibody for Abeta 1-40, and monoclonal 21F12 as a capture antibody for Abeta 1-42. Both Abeta 1-40 and Abeta 1-42 ELISAs use biotinylated 3D6 as the reporting antibody. The concentration of Abeta released in the conditioned media following the compound treatment corresponds to the activity of BACE1 under such conditions. The 10-point inhibition curve is plotted and fitted with the four-parameter logistic equation to obtain the EC50 and IC50 values for the Abeta-lowering effect.

The target of another series is human BACE1(1-460):Fc (Homo sapiens (Human), UniProt P56817). As to the kind of experiment: BACE1 FRET Assay. The series is classed as biochemical. The following applies: purified recombinant huBACE1:Fc, FRET substrate, pH 4.6; Mean ± SEM. As to the method: as §1
Human BACE1 (accession number: AF190725) is cloned from total brain cDNA by RT-PCR. The nucleotide sequences corresponding to amino acid sequences #1 to 460 are inserted into the cDNA encoding human IgG1 (Fc) polypeptide (Vassar et al. 1999). This fusion protein of BACE1(1-460) and human Fc, named huBACE1:Fc, is constructed into the pJB02 vector. Human BACE1(1-460):Fc (huBACE1:Fc) is transiently expressed in HEK293 cells. 250 μg cDNA of each construct is mixed with Fugene 6 and added to 1 liter HEK293 cells. Four days after the transfection, conditioned media are harvested for purification.
huBACE1:Fc is purified by Protein A chromatography. The enzyme is stored at −80° C. in small aliquots.
Serial dilutions of test compounds are prepared as described above. Compounds are further diluted 20× in KH2PO4 buffer. […] The content is mixed well on a plate shaker for 10 minutes. Fifteen μL of two hundred pM human BACE1(1-460):Fc (See Vasser, et al., Science, 286, 735-741 (1999)) in the KH2PO4 buffer is added to the plate containing substrate and test compounds to initiate the reaction. The RFU of the mixture at time 0 is recorded at excitation wavelength 355 nm and emission wavelength 460 nm, after brief mixing on a plate shaker. The reaction plate is covered with aluminum foil and kept in a dark humidified oven at room temperature for 16 to 24 h. The RFU at the end of incubation is recorded with the same excitation and emission settings used at time 0. The difference of the RFU at time 0 and the end of incubation is representative of the activity of BACE1 under the compound treatment. RFU differences are plotted versus inhibitor concentration and a curve is fitted with a four-parameter logistic equation to obtain the EC50 and IC50 values. (See Sinha, et al., Nature, 402, 537-540 […]).

A further series concerns PDAPP mice. As to the kind of experiment: In Vivo Inhibition of Beta-Secretase (brain Abeta 1-x reduction). The following applies: for Abeta 1-x peptide levels reduced in brain cortex / Abeta 1-x peptide levels reduced in brain hippocampus: 3 hours after administration, compared to vehicle-treated mice. The arrangement: species or system mouse. An excerpt:
Several animal models, including mouse, guinea pig, dog, and monkey, may be used to screen for inhibition of beta-secretase activity in vivo following compound treatment. Animals used in this invention can be wild type, transgenic, or gene knockout animals. For example, the PDAPP mouse model, prepared as described in Games et al., Nature 373, 523-527 (1995), and other non-transgenic or gene knockout animals are useful to analyze in vivo inhibition of Abeta and sAPPbeta production in the presence of inhibitory compounds. Generally, 2 to 12 month old PDAPP mice, gene knockout mice or non-transgenic animals are administered compound formulated in vehicles, such as corn oil, cyclodextran, phosphate buffers, PHARMASOLVE®, or other suitable vehicles. One to twenty-four hours following the administration of compound, animals are sacrificed, and brains as well as cerebrospinal fluid and plasma are removed for analysis of Abetas, C99, and sAPP fragments. (See May, et al., Journal of Neuroscience, 31, 16507-16516 (2011)).
For standard in vivo pharmacology studies, animals are dosed with various concentrations of compound and compared to a vehicle-treated control group dosed at the same time. For some time course studies, brain tissue, plasma, or cerebrospinal fluid is obtained from selected animals, beginning at time 0 to establish a baseline. Compound or appropriate vehicle is administered to other groups and sacrificed at various times after dosing. Brain tissue, plasma, or cerebrospinal fluid is obtained from selected animals and analyzed for the presence of APP cleavage products, including Abeta peptides, sAPPbeta, and other APP fragments, for example, by specific sandwich ELISA assays. At the end of the test period, animals are sacrificed and brain tissues, plasma, or cerebrospinal fluid are analyzed for the presence of Abeta peptides, C99, and sAPPbeta, as appropriate. Brain tissues of APP transgenic animals may also be analyzed for the amount of beta-amyloid plaques following compound treatment. “Abeta 1-x peptide” as used herein refers to the sum of Abeta species that begin with residue 1 and ending with a C-terminus greater than residue 28. This detects the majority of Abeta species and is often called “total Abeta”.

Setting [2] is: Abeta 1-40, Mean ± SEM, read-out: PDAPP Neuron A-beta (1-40) ELISA IC50.
[3] abbreviates: Abeta 1-42, Mean ± SEM, read-out: PDAPP Neuron A-beta (1-42) ELISA IC50.
Where [4] appears, read: HEK293, Abeta 1-40 in conditioned media, read-out: HEK 293 Swe A-beta (1-40) ELISA IC50.
The mark [5] stands for this setting: HEK293, Abeta 1-42 in conditioned media, read-out: HEK 293 Swe A-beta (1-42) ELISA IC50.

pIC50: −log10 of the molar value. Counter-ions that a name gives are not always drawn. Like-named read-outs stand apart in the source and are kept apart here.

human BACE1(1-460):Fc, sequence (P56817 22-460): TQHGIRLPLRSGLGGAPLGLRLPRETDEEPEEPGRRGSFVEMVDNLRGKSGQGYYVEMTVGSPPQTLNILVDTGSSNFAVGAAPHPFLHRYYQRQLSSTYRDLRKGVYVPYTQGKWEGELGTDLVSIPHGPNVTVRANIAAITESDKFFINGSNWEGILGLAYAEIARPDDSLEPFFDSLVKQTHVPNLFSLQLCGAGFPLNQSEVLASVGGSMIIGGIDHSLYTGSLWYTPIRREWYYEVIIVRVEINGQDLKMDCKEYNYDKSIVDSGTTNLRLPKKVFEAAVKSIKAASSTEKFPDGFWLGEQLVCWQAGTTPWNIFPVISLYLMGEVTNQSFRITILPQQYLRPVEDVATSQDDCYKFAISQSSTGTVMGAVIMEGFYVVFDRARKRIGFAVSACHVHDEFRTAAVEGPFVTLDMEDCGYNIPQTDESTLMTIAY

As to `COc1cnc(C(=O)Nc2cccc([C@]34CN(c5ncc(F)cn5)C[C@H]3CSC(N)=N4)c2)cn1` [Example 2, N-{3-[(4aR,7aS)-2-Amino-6-(5-fluoropyrimidin-2-yl)-4a,5,6,7-tetrahydropyrrolo[3,4-d][1,3]thiazin-7a(4H)-yl]phenyl}-5-methoxypyrazine-2-carboxamide hydrochloride], the pIC50 in series [1] (setting [2]) was 9.61; in series [1] (setting [3]), 8.91; in the series with HEK293Swe cells (setting [4]), 9.49; with HEK293Swe cells (setting [5]), 9.54; on human BACE1(1-460):Fc it was 9.32.

As to `Cl.NC1=N[C@@]2(c3cc(NC(=O)c4ccc(F)cn4)ccc3F)CN(c3ncc(F)cn3)C[C@H]2CS1` [Example 3, N-[3-[(4aR,7aS)-2-Amino-6-(5-fluoropyrimidin-2-yl)-4,4a,5,7-tetrahydropyrrolo[3,4-d][1,3]thiazin-7a-yl]-4-fluoro-phenyl]-5-fluoro-pyridine-2-carboxamide hydrochloride], the pIC50 was 9.51 in series [1] (setting [2]), 9.74 in series [1] (setting [3]), 8.90 in the series on HEK293Swe cells (setting [4]) and 9.52 in the series on HEK293Swe cells (setting [5]). Further, the CNS penetration result in the series on PDAPP mice is given as “demonstrate CNS penetration”. Further, the “Abeta 1-x peptide levels reduced in brain cortex” value in the series with PDAPP mice (1 mg/kg oral dose) was “approximately 34%”; in the series on PDAPP mice (3 mg/kg oral dose) it was about 53%. For the same compound, the “Abeta 1-x peptide levels reduced in brain hippocampus” value is “approximately 38%” in the series on PDAPP mice (1 mg/kg oral dose) and about 50% with PDAPP mice (3 mg/kg oral dose).

With `COc1cnc(C(=O)Nc2ccc(F)c([C@]34CN(c5ncc(F)cn5)C[C@H]3CSC(N)=N4)c2)cn1` [Example 4, N-[3-[(4aR,7aS)-2-Amino-6-(5-fluoropyrimidin-2-yl)-4,4a,5,7-tetrahydropyrrolo[3,4-d][1,3]thiazin-7a-yl]-4-fluoro-phenyl]-5-methoxy-pyrazine-2-carboxamide hydrochloride], the negative logarithm of the IC50 (pIC50) was 9.87 in series [1] (setting [2]) and 9.88 in series [1] (setting [3]).

In the case of `N#Cc1ccc(C(=O)Nc2cccc([C@]34CN(c5ncc(F)cn5)C[C@H]3CSC(N)=N4)c2)nc1` [Example 5, N-[3-[(4aR,7aS)-2-Amino-6-(5-fluoropyrimidin-2-yl)-4,4a,5,7-tetrahydropyrrolo[3,4-d][1,3]thiazin-7a-yl]phenyl]-5-cyano-pyridine-2-carboxamide hydrochloride], the pIC50 was 9.88 in series [1] (setting [2]); 10.09 in series [1] (setting [3]); 10.05 in the series on HEK293Swe cells (setting [4]); 10.11 in the series with HEK293Swe cells (setting [5]); 9.35 at human BACE1(1-460):Fc.

Turning to `NC1=N[C@@]2(c3cccc(NC(=O)c4ncc(F)cc4F)c3)CN(c3ncc(F)cn3)C[C@H]2CS1` [Example 6, N-[3-[(4aR,7aS)-2-Amino-6-(5-fluoropyrimidin-2-yl)-4,4a,5,7-tetrahydropyrrolo[3,4-d][1,3]thiazin-7a-yl]phenyl]-3,5-difluoro-pyridine-2-carboxamide hydrochloride], the pIC50 in series [1] (setting [2]) was 9.55; in series [1] (setting [3]) it was 9.51; in the series with HEK293Swe cells (setting [4]), 9.66; with HEK293Swe cells (setting [5]), 9.68; on human BACE1(1-460):Fc it was 9.13.

With `N#Cc1ccc(C(=O)Nc2ccc(F)c([C@]34CN(c5ncc(F)cn5)C[C@H]3CSC(N)=N4)c2)nc1` [Example 7, N-[3-[(4aR,7aS)-2-Amino-6-(5-fluoropyrimidin-2-yl)-4,4a,5,7-tetrahydropyrrolo[3,4-d][1,3]thiazin-7a-yl]-4-fluoro-phenyl]-5-cyano-pyridine-2-carboxamide hydrochloride], the pIC50 in series [1] (setting [2]) was 10.06; in series [1] (setting [3]), 10.19; at human BACE1(1-460):Fc, 9.45.

As for `NC1=N[C@@]2(c3cc(NC(=O)c4ncc(F)cc4F)ccc3F)CN(c3ncc(F)cn3)C[C@H]2CS1` [Example 8, N-[3-[(4aR,7aS)-2-Amino-6-(5-fluoropyrimidin-2-yl)-4,4a,5,7-tetrahydropyrrolo[3,4-d][1,3]thiazin-7a-yl]-4-fluoro-phenyl]-3,5-difluoro-pyridine-2-carboxamide hydrochloride], the pIC50 was 9.55 in series [1] (setting [2]) and 9.54 in series [1] (setting [3]).
